Assay results from patent US20180194762A1 (Pharmacyclics LLC, priority 2017, published 2018).

Legend:
Format in all cases: biochemical
TEC = target: T1, TEC (Homo sapiens, UniProt P42680); assay: Inhibition of a panel of kinases (in vitro HotSpot kinase assay, 33P-ATP, 1 μM ATP); details: HotSpot kinase assay, 1 μM ATP
T1 sequence (P42680 1-631): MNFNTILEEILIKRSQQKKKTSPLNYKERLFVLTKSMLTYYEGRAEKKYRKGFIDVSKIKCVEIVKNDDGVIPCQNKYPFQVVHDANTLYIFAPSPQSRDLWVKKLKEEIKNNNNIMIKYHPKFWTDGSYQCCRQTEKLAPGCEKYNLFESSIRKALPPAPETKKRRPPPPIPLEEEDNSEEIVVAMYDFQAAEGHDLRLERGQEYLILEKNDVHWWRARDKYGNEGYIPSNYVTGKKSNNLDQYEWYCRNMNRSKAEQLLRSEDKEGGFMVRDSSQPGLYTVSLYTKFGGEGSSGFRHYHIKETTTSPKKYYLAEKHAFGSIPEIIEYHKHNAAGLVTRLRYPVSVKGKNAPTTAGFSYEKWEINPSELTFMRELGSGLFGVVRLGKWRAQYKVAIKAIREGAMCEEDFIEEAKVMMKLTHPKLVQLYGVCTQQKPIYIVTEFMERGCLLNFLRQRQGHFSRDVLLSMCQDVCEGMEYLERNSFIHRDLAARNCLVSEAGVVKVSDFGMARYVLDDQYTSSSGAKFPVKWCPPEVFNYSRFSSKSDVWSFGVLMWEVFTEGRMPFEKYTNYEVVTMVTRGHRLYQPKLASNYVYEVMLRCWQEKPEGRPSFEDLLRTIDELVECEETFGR
How it was run: (§1)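 Radiometric read-out: 33P transfer to a suitable substrate by each purified enzyme, ATP at 1 μM. Values are degree of inhibition.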

panel of kinases = target: T2, panel of kinases (Homo sapiens, UniProt P51813); assay: Inhibition of a panel of kinases (in vitro HotSpot kinase assay, 33P-ATP, 1 μM ATP), other kinases; details: BMX wild-type, read-out: BMX-WT IC50
T2 sequence (P51813 1-675): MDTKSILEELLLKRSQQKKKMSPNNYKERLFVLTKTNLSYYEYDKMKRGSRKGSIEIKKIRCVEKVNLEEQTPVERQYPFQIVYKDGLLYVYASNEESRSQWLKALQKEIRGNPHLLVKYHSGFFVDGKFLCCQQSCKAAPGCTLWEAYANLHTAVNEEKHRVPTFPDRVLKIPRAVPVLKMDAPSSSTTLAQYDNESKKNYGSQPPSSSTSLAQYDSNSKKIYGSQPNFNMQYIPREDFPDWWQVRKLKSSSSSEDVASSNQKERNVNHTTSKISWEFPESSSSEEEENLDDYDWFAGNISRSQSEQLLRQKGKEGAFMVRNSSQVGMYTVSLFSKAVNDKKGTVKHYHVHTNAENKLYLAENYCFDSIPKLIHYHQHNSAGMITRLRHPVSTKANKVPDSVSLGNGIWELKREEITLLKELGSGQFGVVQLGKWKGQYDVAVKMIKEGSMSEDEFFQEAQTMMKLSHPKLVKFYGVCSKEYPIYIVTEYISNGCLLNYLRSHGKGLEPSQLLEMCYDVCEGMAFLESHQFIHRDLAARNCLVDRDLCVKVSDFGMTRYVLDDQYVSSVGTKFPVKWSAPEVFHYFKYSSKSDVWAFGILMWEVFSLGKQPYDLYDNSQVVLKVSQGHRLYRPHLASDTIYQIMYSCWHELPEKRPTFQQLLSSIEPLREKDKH
How it was run: as §1

Btk = target: T3, Btk (Homo sapiens, UniProt Q06187); assay: Btk in vitro inhibitory activity (one of Method A TR-FRET, Method B electrophoretic mobility shift, Method C radiometric filter binding); details: wild-type Btk; read-out: Btk-WT IC50
T3 construct: purified from insect cells as a full-length construct containing a N-terminal 6X-His tag; His6 (N); made in house; host or cells: insect cells (Method C)
T3 sequence (Q06187 whole entry): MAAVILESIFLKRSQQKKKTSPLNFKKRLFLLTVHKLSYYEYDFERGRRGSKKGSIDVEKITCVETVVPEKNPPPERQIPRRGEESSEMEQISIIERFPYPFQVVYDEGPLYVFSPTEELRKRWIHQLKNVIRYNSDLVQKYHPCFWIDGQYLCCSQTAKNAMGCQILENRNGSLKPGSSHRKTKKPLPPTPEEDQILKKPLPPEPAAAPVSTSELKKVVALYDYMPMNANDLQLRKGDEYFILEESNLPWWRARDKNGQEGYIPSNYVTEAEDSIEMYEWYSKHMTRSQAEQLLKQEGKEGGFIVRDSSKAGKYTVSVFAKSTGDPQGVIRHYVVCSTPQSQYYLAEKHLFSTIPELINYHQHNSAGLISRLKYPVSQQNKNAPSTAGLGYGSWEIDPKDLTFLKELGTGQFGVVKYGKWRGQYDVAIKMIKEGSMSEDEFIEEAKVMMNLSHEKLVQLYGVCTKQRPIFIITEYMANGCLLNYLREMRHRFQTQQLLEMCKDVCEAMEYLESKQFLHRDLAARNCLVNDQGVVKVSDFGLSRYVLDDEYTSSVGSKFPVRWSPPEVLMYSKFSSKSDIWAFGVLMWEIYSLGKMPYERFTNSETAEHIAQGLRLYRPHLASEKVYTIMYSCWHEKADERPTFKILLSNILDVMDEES
How it was run: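 Three alternative formats were used. A radiometric filter-binding read used 8 nM full-length His-BTK with 0.2 mg/mL poly(Glu-Tyr) 4:1 (C); microfluidic separation of 1 μM FAM-peptide by 1 nM BTK gave IC50 from 12-point curves (B); TR-FRET at Km ATP, 0.5 nM Btk, gave Ki(app)-derived IC50 (A).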

SMILES	IC50 (TEC) [nM]	IC50 (panel of kinases) [nM]	IC50 (Btk) [nM]
C=CC(=O)N1CC[C@@H](Nc2n[nH]c3nccc(-c4ccc(CNC(=O)N5CCCCC5)c(F)c4)c23)C1 [Example 375, N-{[2-fluoro-4-(3-{[(3R)-1-(prop-2-enoyl)pyrrolidin-3-yl]amino}-1H-pyrazolo[3,4-b]pyridin-4-yl)phenyl]methyl}piperidine-1-carboxamide]	807	98.3	22.1
C=CC(=O)N1CC[C@@H](Nc2n[nH]c3nccc(-c4ccc(CNC(=O)c5cn6ccccc6n5)c(F)c4)c23)C1 [Example 377, N-{[2-fluoro-4-(3-{[(3R)-1-(prop-2-enoyl)pyrrolidin-3-yl]amino}-1H-pyrazolo[3,4-b]pyridin-4-yl)phenyl]methyl}imidazo [1,2-a]pyridine-2-carboxamide]	671	133	40.6
C=CC(=O)N1CC[C@@H](Nc2n[nH]c3nccc(-c4ccc(CNC(=O)c5ccc6ocnc6c5)c(F)c4)c23)C1 [Example 379, (R)-N-{[2-fluoro-4-(3-{[1-(prop-2-enoyl)pyrrolidin-3-yl]amino}-1H-pyrazolo[3,4-b]pyridin-4-yl)phenyl]methyl}-1,3-benzoxazole-5-carboxamide]	741	141	64.1
C=CC(=O)N1CC[C@@H](Nc2n[nH]c3nccc(-c4ccc(CNC(=O)c5ccc6oc(C)nc6c5)c(F)c4)c23)C1 [Example 380, (R)-N-{[2-fluoro-4-(3-{[1-(prop-2-enoyl)pyrrolidin-3-yl]amino}-1H-pyrazolo[3,4-b]pyridin-4-yl)phenyl]methyl}-2-methyl-1,3-benzoxazole-5-carboxamide]	662	101	336
C[C@@H](NC(=O)c1nc(C(C)(C)C)no1)c1ccc(-c2ccnc3[nH]nc(N4CCCCC4)c23)cc1 [Example 384, 3-tert-butyl-N-[(1R)-1-{4-[3-(piperidin-1-yl)-1H-pyrazolo[3,4-b]pyridin-4-yl]phenyl}ethyl]-1,2,4-oxadiazole-5-carboxamide]	3040	2040	0.664
CC(C)c1noc(C(=O)N[C@H](C)c2ccc(-c3ccnc4[nH]nc(N5CCOCC5)c34)cc2)n1 [Example 389, N-[(1R)-1-{4-[3-(morpholin-4-yl)-1H-pyrazolo[3,4-b]pyridin-4-yl]phenyl}ethyl]-3-(propan-2-yl)-1,2,4-oxadiazole-5-carboxamide]	914	502	4.05
C=CC(=O)N1CC[C@@H](Nc2n[nH]c3nccc(-c4ccc(CNC(=O)c5cn6c(C)cccc6n5)c(F)c4)c23)C1 [Example 390, N-{[2-fluoro-4-(3-{[(3R)-1-(prop-2-enoyl)pyrrolidin-3-yl]amino}-1H-pyrazolo[3,4-b]pyridin-4-yl)phenyl]methyl}-5-methylimidazo[1,2-a]pyridine-2-carboxamide]	713	162	38.1
C[C@H]1CC[C@@H](Nc2n[nH]c3nccc(-c4ccc(CNC(=O)c5nc(C(C)(C)C)no5)c(F)c4)c23)CN1C(=O)N(C)C [Example 391, (2S,5R)-5-{[4-(4-{[(3-tert-butyl-1,2,4-oxadiazole-5-carbonyl)amino]methyl}-3-fluorophenyl)-1H-pyrazolo[3,4-b]pyridin-3-yl]amino}-N,N,2-trimethylpiperidine-1-carboxamide]	776	1350	0.237
CC(=O)N[C@@H]1CCN(c2n[nH]c3nccc(-c4ccc(CNC(=O)c5nc6ccccc6o5)c(F)c4)c23)C1 [Example 394, N-[(4-{3-[(3R)-3-acetamidopyrrolidin-1-yl]-1H-pyrazolo[3,4-b]pyridin-4-yl}-2-fluorophenyl)methyl]-1,3-benzoxazole-2-carboxamide]	1890	661	63.3
C[C@@H](NC(=O)c1cc(C(C)(C)O)on1)c1ccc(-c2ccnc3[nH]nc(NC4CCCC4)c23)cc1 [Example 397, N-[(1R)-1-{4-[3-(cyclopentylamino)-1H-pyrazolo[3,4-b]pyridin-4-yl]phenyl}ethyl]-5-(2-hydroxypropan-2-yl)-1,2-oxazole-3-carboxamide]	6060	3360	382
CC(C)(C#N)c1cc(C(=O)NCc2ccc(-c3ccnc4[nH]nc(N5CC[C@@H](N)C5)c34)cc2F)no1 [Example 401, N-[(4-{3-[(3R)-3-aminopyrrolidin-1-yl]-1H-pyrazolo[3,4-b]pyridin-4-yl}-2-fluorophenyl)methyl]-5-(2-cyanopropan-2-yl)-1,2-oxazole-3-carboxamide]	1280	885	33.8

These reach a lower IC50 (TEC). Values come first.

IC50 (TEC) [nM]	IC50 (panel of kinases) [nM]	IC50 (Btk) [nM]	SMILES
146	128	1.23	C=CC(=O)N1CC[C@@H](Nc2n[nH]c3nccc(-c4ccc(CNC(=O)c5ccc6c(c5)OCCO6)c(F)c4)c23)C1 [Example 374, N-{[2-fluoro-4-(3-{[(3R)-1-(prop-2-enoyl)pyrrolidin-3-yl]amino}-1H-pyrazolo[3,4-b]pyridin-4-yl)phenyl]methyl}-2,3-dihydro-1,4-benzodioxine-6-carboxamide]
344	115	7.99	C=CC(=O)N1CC[C@@H](Nc2n[nH]c3nccc(-c4ccc(CNC(=O)c5nn6c(c5C)OCCC6)c(F)c4)c23)C1 [Example 376, N-{[2-fluoro-4-(3-{[(3R)-1-(prop-2-enoyl)pyrrolidin-3-yl]amino}-1H-pyrazolo[3,4-b]pyridin-4-yl)phenyl]methyl}-3-methyl-6,7-dihydro-5H-pyrazolo[5,1-b][1,3]oxazine-2-carboxamide]
278	69.2	6.54	C=CC(=O)N1CC[C@@H](Nc2n[nH]c3nccc(-c4ccc(CNC(=O)c5ccc6sc(C)nc6c5)c(F)c4)c23)C1 [Example 378, N-{[2-fluoro-4-(3-{[(3R)-1-(prop-2-enoyl)pyrrolidin-3-yl]amino}-1H-pyrazolo[3,4-b]pyridin-4-yl)phenyl]methyl}-2-methyl-1,3-benzothiazole-5-carboxamide]
433	435	1.81	C=CC(=O)N[C@@H]1CCN(c2n[nH]c3nccc(-c4ccc([C@@H](C)NC(=O)c5cc(C(C)(C)O)on5)cc4)c23)C1 [Example 382, 5-(2-hydroxypropan-2-yl)-N-{(1R)-1-[4-(3-{(3R)-3-[(prop-2-enoyl)amino]pyrrolidin-1-yl}-1H-pyrazolo[3,4-b]pyridin-4-yl)phenyl]ethyl}-1,2-oxazole-3-carboxamide]
52.6	30.3	1.19	C=CC(=O)N[C@@H]1CCN(c2n[nH]c3nccc(-c4ccc(CNC(=O)c5nc6ccccc6o5)c(F)c4)c23)C1 [Example 395, N-{[2-fluoro-4-(3-{(3R)-3-[(prop-2-enoyl)amino]pyrrolidin-1-yl}-1H-pyrazolo[3,4-b]pyridin-4-yl)phenyl]methyl}-1,3-benzoxazole-2-carboxamide]
235	1190	0.488	C[C@@H](NC(=O)c1nc(C(C)(C)C)no1)c1ccc(-c2ccnc3[nH]nc(N4CCC(NS(C)(=O)=O)CC4)c23)cc1 [Example 396, 3-tert-butyl-N-{(1R)-1-[4-(3-{4-[(methanesulfonyl)amino]piperidin-1-yl}-1H-pyrazolo[3,4-b]pyridin-4-yl)phenyl]ethyl}-1,2,4-oxadiazole-5-carboxamide]
